Results published in ChEMBL document CHEMBL5143540, “Design, synthesis and biological evaluation of nitrofuran-1,3,4-oxadiazole hybrids as new antitubercular agents” (Bioorg Med Chem, 2022).
In brackets after ≈: the same amount, converted by molar mass.

system: Mycobacterium tuberculosis; assay: Antitubercular activity against multi-drug resistant Mycobacterium tuberculosis 16833 assessed as reduction in bacterial growth incubated for 7 days by Alamar blue assay; format: functional; conditions: Mycobacterium tuberculosis, 16833, 168 h; time 7 day

SMILES	MIC [mg/L]
COc1ccc(-c2nnc(CNC(=O)c3ccc([N+](=O)[O-])o3)o2)cc1	3.58 (≈ 10.4 µM)
CO[C@H]1/C=C/O[C@@]2(C)Oc3c(C)c(O)c4c(O)c(c(/C=N/N5CCN(C)CC5)c(O)c4c3C2=O)NC(=O)/C(C)=C\C=C\[C@H](C)[C@H](O)[C@@H](C)[C@@H](O)[C@@H](C)[C@H](OC(C)=O)[C@@H]1C [RIFAMPIN]	> 32
O=C(NCc1nnc(-c2ccc(OC(F)(F)F)cc2)o1)c1ccc([N+](=O)[O-])o1	1.96 (≈ 4.91 µM)
O=C(Nc1nnc(-c2ccc(Br)cc2)o1)c1ccc([N+](=O)[O-])o1	1.44 (≈ 3.8 µM)
CC(C)(C)c1ccc(-c2nnc(-c3ccc([N+](=O)[O-])o3)o2)cc1	> 32
CC(C)(C)c1ccc(-c2nnc(CNC(=O)c3ccc([N+](=O)[O-])o3)o2)cc1	1.85 (≈ 5 µM)
O=C(NCc1nnc(-c2ccc(C(F)(F)F)cc2)o1)c1ccc([N+](=O)[O-])o1	1.93 (≈ 5.04 µM)
NNC(=O)c1ccncc1 [ISONIAZID]	> 32
